Assay results published in ChEMBL document CHEMBL4265951, “Multi-target-directed ligands for Alzheimer's disease: Discovery of chromone-based monoamine oxidase/cholinesterase inhibitors” (Eur J Med Chem, 2018).
Active and inactive are the calls of the source. The calls are words filed in the database; no cut-off is given here.

What was measured:
[1] = biological target: T1, Amine oxidase [flavin-containing] A (Homo sapiens, UniProt P21397); test: Inhibition of human recombinant microsomal MAOA expressed in baculovirus infected BTI-TN-5B1- 4 cells using p-tyramine as substrate assessed as decrease in H2O2 production at 10 uM by amplex red-based fluorescence assay
T1 sequence (P21397 whole entry): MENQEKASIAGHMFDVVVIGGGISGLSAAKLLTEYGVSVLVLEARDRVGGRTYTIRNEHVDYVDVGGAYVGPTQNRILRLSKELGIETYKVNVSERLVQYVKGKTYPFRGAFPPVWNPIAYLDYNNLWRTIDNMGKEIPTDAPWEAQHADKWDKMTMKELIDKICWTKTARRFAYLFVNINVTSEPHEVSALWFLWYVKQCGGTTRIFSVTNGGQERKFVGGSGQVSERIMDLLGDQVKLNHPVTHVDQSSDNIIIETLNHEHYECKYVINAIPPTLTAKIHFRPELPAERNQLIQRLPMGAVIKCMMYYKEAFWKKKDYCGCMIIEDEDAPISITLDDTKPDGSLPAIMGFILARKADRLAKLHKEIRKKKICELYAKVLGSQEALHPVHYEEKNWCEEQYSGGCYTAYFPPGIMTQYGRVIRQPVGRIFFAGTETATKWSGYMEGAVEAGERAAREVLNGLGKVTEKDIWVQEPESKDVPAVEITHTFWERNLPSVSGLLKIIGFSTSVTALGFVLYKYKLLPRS

[2] = biological target: T2, Amine oxidase [flavin-containing] B (Homo sapiens, UniProt P27338); test: biochemical; type: cell-based
T2 sequence (P27338 whole entry): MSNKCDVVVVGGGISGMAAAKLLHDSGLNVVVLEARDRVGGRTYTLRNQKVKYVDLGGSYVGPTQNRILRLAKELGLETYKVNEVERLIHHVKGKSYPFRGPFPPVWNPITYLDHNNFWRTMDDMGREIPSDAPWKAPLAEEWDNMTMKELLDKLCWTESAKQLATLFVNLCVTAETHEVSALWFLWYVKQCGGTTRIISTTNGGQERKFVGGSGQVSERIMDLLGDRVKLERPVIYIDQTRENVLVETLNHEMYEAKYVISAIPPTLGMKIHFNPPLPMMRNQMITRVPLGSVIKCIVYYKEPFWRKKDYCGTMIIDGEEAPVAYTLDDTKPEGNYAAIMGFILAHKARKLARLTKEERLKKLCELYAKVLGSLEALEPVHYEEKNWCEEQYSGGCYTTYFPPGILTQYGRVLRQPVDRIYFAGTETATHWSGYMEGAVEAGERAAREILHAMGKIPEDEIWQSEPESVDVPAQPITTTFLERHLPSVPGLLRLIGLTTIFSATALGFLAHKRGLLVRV
Description: Inhibition of human recombinant MAOB expressed in baculovirus infected BTI-TN-5B1- 4 cells using p-tyramine as substrate assessed as decrease in H2O2 production by amplex red-based fluorescence assay

Acetylcholinesterase [3] = biological target: T3, Acetylcholinesterase (Homo sapiens, UniProt P22303); test: Inhibition of human AChE at 10 uM using acetylthiocholine iodide as substrate pretreated for 5 mins followed by substrate addition measured after 5 mins by Ellman's method
Cholinesterase [4] = biological target: T4, Cholinesterase (Homo sapiens, UniProt P06276); test: Inhibition of human serum BuChE at 10 uM using butyrylthiocholine as substrate pretreated for 5 mins followed by substrate addition measured after 5 mins by Ellman's method
[5] = biological target: T2, Amine oxidase [flavin-containing] B; test: Inhibition of human recombinant MAOB expressed in baculovirus infected BTI-TN-5B1- 4 cells using p-tyramine as substrate assessed as decrease in H2O2 production at 10 uM by amplex red-based fluorescence assay
Acetylcholinesterase [6] = biological target: T3, Acetylcholinesterase; test: Inhibition of human AChE using acetylthiocholine iodide as substrate pretreated for 5 mins followed by substrate addition measured after 5 mins by Ellman's method
in vitro = conditions: PAMPA
Description: Effective permeability of the compound at 1 mg/ml after 4 hrs by BBB-PAMPA method

Cholinesterase [7] = biological target: T4, Cholinesterase; test: Inhibition of human serum BuChE using butyrylthiocholine as substrate pretreated for 5 mins followed by substrate addition measured after 5 mins by Ellman's method
Beta-secretase 1 = Beta-secretase 1 (Homo sapiens, UniProt P56817); test: Inhibition of human BACE1 using rhodamine-EVNLDAEFK-quencher as substrate after 60 mins by FRET assay
[8] = biological target: T1, Amine oxidase [flavin-containing] A; test: biochemical
Description: Inhibition of human recombinant microsomal MAOA expressed in baculovirus infected BTI-TN-5B1- 4 cells using p-tyramine as substrate assessed as decrease in H2O2 production by amplex red-based fluorescence assay

T3 sequence (P22303 whole entry): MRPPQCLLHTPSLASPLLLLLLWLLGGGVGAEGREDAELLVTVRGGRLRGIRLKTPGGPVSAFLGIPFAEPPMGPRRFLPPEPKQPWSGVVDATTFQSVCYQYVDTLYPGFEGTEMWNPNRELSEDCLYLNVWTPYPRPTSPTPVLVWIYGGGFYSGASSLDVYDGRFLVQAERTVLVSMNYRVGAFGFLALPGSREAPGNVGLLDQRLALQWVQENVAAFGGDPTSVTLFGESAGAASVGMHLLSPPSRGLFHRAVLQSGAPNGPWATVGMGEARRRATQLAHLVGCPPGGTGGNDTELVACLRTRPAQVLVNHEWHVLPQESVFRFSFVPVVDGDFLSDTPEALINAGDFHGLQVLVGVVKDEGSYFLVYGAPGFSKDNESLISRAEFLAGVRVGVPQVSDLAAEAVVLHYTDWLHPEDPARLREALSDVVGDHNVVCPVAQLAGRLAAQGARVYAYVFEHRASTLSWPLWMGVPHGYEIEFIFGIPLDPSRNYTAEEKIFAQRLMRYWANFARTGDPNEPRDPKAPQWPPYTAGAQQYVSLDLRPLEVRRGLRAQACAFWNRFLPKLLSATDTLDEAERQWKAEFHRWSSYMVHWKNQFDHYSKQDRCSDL
T4 sequence (P06276 whole entry): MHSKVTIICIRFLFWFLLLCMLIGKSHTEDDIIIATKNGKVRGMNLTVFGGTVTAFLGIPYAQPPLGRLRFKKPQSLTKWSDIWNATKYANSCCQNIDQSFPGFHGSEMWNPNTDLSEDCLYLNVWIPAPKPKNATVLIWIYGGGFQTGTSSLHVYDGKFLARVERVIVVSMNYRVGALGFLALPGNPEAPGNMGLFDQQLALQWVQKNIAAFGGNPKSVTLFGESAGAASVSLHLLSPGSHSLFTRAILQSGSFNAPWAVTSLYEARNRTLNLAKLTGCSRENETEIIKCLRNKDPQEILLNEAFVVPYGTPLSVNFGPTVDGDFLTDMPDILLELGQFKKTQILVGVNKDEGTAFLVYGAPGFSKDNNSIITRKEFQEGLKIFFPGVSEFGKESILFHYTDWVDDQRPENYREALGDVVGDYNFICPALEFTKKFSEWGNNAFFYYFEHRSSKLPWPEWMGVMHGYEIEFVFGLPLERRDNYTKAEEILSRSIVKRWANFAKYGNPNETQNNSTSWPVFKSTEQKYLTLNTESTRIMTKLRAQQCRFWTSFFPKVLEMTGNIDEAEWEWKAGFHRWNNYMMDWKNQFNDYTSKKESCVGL
Sequence of Beta-secretase 1 (P56817 whole entry): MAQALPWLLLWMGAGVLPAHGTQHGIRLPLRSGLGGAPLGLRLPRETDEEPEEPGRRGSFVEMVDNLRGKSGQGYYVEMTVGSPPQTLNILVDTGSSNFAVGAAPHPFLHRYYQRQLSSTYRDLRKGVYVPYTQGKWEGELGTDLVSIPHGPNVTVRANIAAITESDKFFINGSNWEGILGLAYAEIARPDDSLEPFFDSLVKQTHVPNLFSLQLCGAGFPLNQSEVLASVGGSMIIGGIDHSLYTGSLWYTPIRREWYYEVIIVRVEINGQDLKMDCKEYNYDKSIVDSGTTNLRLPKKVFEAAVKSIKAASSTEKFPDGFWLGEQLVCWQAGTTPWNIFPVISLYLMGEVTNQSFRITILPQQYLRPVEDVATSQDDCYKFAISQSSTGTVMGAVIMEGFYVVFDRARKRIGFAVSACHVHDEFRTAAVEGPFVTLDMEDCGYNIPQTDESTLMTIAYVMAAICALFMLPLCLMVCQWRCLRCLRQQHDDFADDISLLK

| Compound | inhibition (INH) [1] | IC50 [2] | inhibition (Acetylcholinesterase [3]) | inhibition (Cholinesterase [4]) | inhibition (INH) [5] | IC50 (Acetylcholinesterase [6]) | Papp at 4 h, 1 mg/ml (in vitro) | IC50 (Cholinesterase [7]) | IC50 (Beta-secretase 1) | IC50 [8] |
| --- | --- | --- | --- | --- | --- | --- | --- | --- | --- | --- |
| Cc1ccc(NC(=O)c2coc3ccc(/C=C/C(=O)O)cc3c2=O)cc1C | Not Active | 4.52 µM | inactive | inactive |  |  |  |  |  |  |
| CCN(CC)CCOC(=O)/C=C/c1ccc2occ(C(=O)Nc3ccc(C)cc3)c(=O)c2c1 | Not Active |  |  | inactive | Not Active | 8.99 µM |  |  |  |  |
| CCN(CC)CCOC(=O)/C=C/c1ccc2oc(C(=O)Nc3ccc(OC)cc3)cc(=O)c2c1 | Not Active |  |  | inactive | Not Active | 1.14 µM |  |  |  |  |
| CCN(CC)CCOC(=O)/C=C/c1ccc2oc(C(=O)Nc3ccc(C)cc3)cc(=O)c2c1 | Not Active |  |  | inactive | Not Active | 9.87 µM |  |  |  |  |
| CCN(CC)CCOC(=O)/C=C/c1ccc2oc(C(=O)Nc3ccccc3)cc(=O)c2c1 | Not Active |  |  | inactive | Not Active | 3.47 µM |  |  |  |  |
| CN(C)CCOC(=O)/C=C/c1ccc2oc(C(=O)Nc3ccc(Cl)cc3)cc(=O)c2c1 | Not Active |  |  | inactive | Not Active | 1.22 µM |  |  |  |  |
| Cc1ccc(NC(=O)c2coc3ccc(/C=C/C(=O)O)cc3c2=O)cc1 | Not Active |  | inactive | inactive | Not Active |  | 1.6 ×10⁻⁶ cm/s |  |  |  |
| CN(C)CCOC(=O)/C=C/c1ccc2occ(C(=O)Nc3ccc(Cl)cc3)c(=O)c2c1 | Not Active | 0.72 µM |  | inactive |  | 9.32 µM |  |  |  |  |
| CCN(CC)CCOC(=O)/C=C/c1ccc2occ(C(=O)Nc3ccccc3)c(=O)c2c1 | Not Active |  | inactive | inactive | Not Active |  |  |  |  |  |
| O=C(O)/C=C/c1ccc2occ(C(=O)Nc3cccc(Cl)c3)c(=O)c2c1 | Not Active |  | inactive | inactive | Not Active |  |  |  |  |  |
| CCN(CC)CCOC(=O)/C=C/c1ccc2oc(C(=O)Nc3ccc(Cl)cc3)cc(=O)c2c1 | Not Active |  |  | inactive | Not Active | 0.86 µM |  |  |  |  |
| Cc1ccc(NC(=O)c2cc(=O)c3cc(/C=C/C(=O)OCCN(C)C)ccc3o2)cc1C | Not Active |  |  | inactive | Not Active | 0.21 µM |  |  |  |  |
| O=C(O)/C=C/c1ccc2oc(C(=O)Nc3cccc(Cl)c3)cc(=O)c2c1 | Not Active |  | inactive | inactive | Not Active |  |  |  |  |  |
| Cc1ccc(NC(=O)c2coc3ccc(/C=C/C(=O)OCCN(C)C)cc3c2=O)cc1C | Not Active | 3.65 µM | inactive | inactive |  |  |  |  |  |  |
| COc1ccc(NC(=O)c2coc3ccc(/C=C/C(=O)O)cc3c2=O)cc1 | Not Active |  |  | inactive | Not Active | 8.7 µM |  |  |  |  |
| CN(C)CCOC(=O)/C=C/c1ccc2oc(C(=O)Nc3cccc(Cl)c3)cc(=O)c2c1 | Not Active |  |  | inactive | Not Active | 5.92 µM |  |  |  |  |
| CN(C)CCOC(=O)/C=C/c1ccc2occ(C(=O)Nc3cccc(Cl)c3)c(=O)c2c1 | Not Active | 2.21 µM | inactive | inactive |  |  |  |  |  |  |

| Compound | inhibition (INH) [1] | IC50 [2] | inhibition (Acetylcholinesterase [3]) | inhibition (Cholinesterase [4]) | inhibition (INH) [5] | IC50 (Acetylcholinesterase [6]) | Papp at 4 h, 1 mg/ml (in vitro) | IC50 (Cholinesterase [7]) | IC50 (Beta-secretase 1) | IC50 [8] |
| --- | --- | --- | --- | --- | --- | --- | --- | --- | --- | --- |
| CN(C)CCOC(=O)/C=C/c1ccc2oc(C(=O)Nc3ccccc3)cc(=O)c2c1 | Not Active | 2.28 µM |  |  |  | 0.74 µM | 3.6 ×10⁻⁶ cm/s | 1.57 µM | > 10 µM |  |
| CCN(CC)CCOC(=O)/C=C/c1ccc2occ(C(=O)Nc3cccc(Cl)c3)c(=O)c2c1 | Not Active | 1.25 µM |  | inactive |  | 8.54 µM |  |  |  |  |
| CCN(CC)CCOC(=O)/C=C/c1ccc2occ(C(=O)Nc3ccc(OC)cc3)c(=O)c2c1 | Not Active |  |  | inactive | Not Active | 5.43 µM |  |  |  |  |
| O=C(O)/C=C/c1ccc2oc(C(=O)Nc3ccccc3)cc(=O)c2c1 | Not Active |  |  | inactive | Not Active | 5.99 µM | 0.9 ×10⁻⁶ cm/s |  |  |  |
| COc1ccc(NC(=O)c2cc(=O)c3cc(/C=C/C(=O)OCCN(C)C)ccc3o2)cc1 |  |  |  | inactive | Not Active | 0.91 µM |  |  |  | 4.91 µM |
| CCN(CC)CCOC(=O)/C=C/c1ccc2occ(C(=O)Nc3ccc(C)c(C)c3)c(=O)c2c1 | Not Active |  |  | inactive | Not Active |  |  |  |  |  |
| Cc1ccc(NC(=O)c2coc3ccc(/C=C/C(=O)OCCN(C)C)cc3c2=O)cc1 | Not Active | 2.37 µM |  |  |  | 0.97 µM | 9.7 ×10⁻⁶ cm/s | 7.42 µM | > 10 µM |  |
| Cc1ccc(NC(=O)c2cc(=O)c3cc(/C=C/C(=O)O)ccc3o2)cc1C | Not Active |  | inactive | inactive | Not Active |  |  |  |  |  |
| Cc1ccc(NC(=O)c2cc(=O)c3cc(/C=C/C(=O)O)ccc3o2)cc1 | Not Active |  |  | inactive | Not Active | 5.1 µM | 1.5 ×10⁻⁶ cm/s |  |  |  |
| COc1ccc(NC(=O)c2coc3ccc(/C=C/C(=O)OCCN(C)C)cc3c2=O)cc1 | Not Active |  |  | inactive | Not Active | 3.54 µM |  |  |  |  |
| O=C(O)/C=C/c1ccc2oc(C(=O)Nc3ccc(Cl)cc3)cc(=O)c2c1 | Not Active |  | inactive | inactive | Not Active |  |  |  |  |  |
| CCN(CC)CCOC(=O)/C=C/c1ccc2oc(C(=O)Nc3cccc(Cl)c3)cc(=O)c2c1 | Not Active |  |  | inactive | Not Active | 4.45 µM |  |  |  |  |
| CCN(CC)CCOC(=O)/C=C/c1ccc2occ(C(=O)Nc3ccc(Cl)cc3)c(=O)c2c1 | Not Active |  |  | inactive | Not Active | 7.68 µM |  |  |  |  |
| O=C(O)/C=C/c1ccc2occ(C(=O)Nc3ccc(Cl)cc3)c(=O)c2c1 | Not Active |  | inactive | inactive | Not Active |  |  |  |  |  |
| COc1ccc(NC(=O)c2cc(=O)c3cc(/C=C/C(=O)O)ccc3o2)cc1 | Not Active |  |  | inactive | Not Active | 7.43 µM |  |  |  |  |
| CCN(CC)CCOC(=O)/C=C/c1ccc2oc(C(=O)Nc3ccc(C)c(C)c3)cc(=O)c2c1 | Not Active | 2.54 µM |  | inactive |  | 2.47 µM |  |  |  |  |
